Data on two compounds can be found in BindingDB's records for doi:10.1021/np9904410 (Virginia Polytechnic Institute and State University, 2000).

Assay [1] is described as follows: Inhibition of topoisomerase 1 in Saccharomyces cerevisiae RS321N in galactose medium by microtiter plate assay.
Assay [2] is described as follows: Inhibition of topoisomerase 1 in Saccharomyces cerevisiae RS321N in glucose medium by microtiter plate assay.

The structures appear in SMILES notation. Some results are limits rather than exact numbers.

A word on the IC50: it is the point on the concentration scale where inhibition reaches its midpoint. High values mean weaker potency in that assay, low ones greater potency in that assay. Consider `COc1ccc(/C=C\c2cc(OC)c(OC)c(OC)c2)c(O)c1O` [combretastatins A-1], for which the IC50 in assay [1] was 4.81 µM; in assay [2], 5.71 µM.

As to `COc1ccc(CCc2cc(OC)c(OC)c(OC)c2)c(O[C@H]2O[C@@H](CO)[C@H](O)[C@@H](O)[C@@H]2O)c1O`, the 50% inhibitory concentration (IC50) in assay [1] was 138 µM; in assay [2] it was > 201 µM.
